The values that follow come from patent US8193189B2, “Quinoxaline derivatives as tyrosine kinase activity inhibitors” (Novartis AG, priority 2007, dated 2012).

The target in one assay is T1, GST-JAK1(866-1154) (Homo sapiens, UniProt P23458).
T1 construct: GST-JAK1(866-1154); made in house
The assay is described as follows: EPK JAK-family kinases profiling assay (Caliper mobility shift), JAK1. Type of assay: biochemical. Conditions: ATP 40 μM, 50 nM kinase. The method in brief:
(§1)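 Turnover was read as substrate/product ratio after mobility-shift capillary-like separation of each reaction, run for 60 min at 30 °C with GST-tagged kinase domain, labelled peptide and ATP, and terminated with EDTA stop buffer.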

The next assay addresses T2, GST-JAK2(808-1132) (Homo sapiens, UniProt O60674).
T2 construct: GST-JAK2(808-1132); purchased Invitrogen (Carlsbad, USA) #4288
As to the kind of experiment: EPK JAK-family kinases profiling assay (Caliper mobility shift), JAK2. In kind it is biochemical. To be noted: ATP 20 μM, 1.8 nM kinase. In short, it runs like this:
as §1

In another assay the target is T3, GST-JAK3(811-1124) (Homo sapiens, UniProt P52333).
T3 construct: GST-JAK3(811-1124); made in house
T3 sequence (P52333 811-1124): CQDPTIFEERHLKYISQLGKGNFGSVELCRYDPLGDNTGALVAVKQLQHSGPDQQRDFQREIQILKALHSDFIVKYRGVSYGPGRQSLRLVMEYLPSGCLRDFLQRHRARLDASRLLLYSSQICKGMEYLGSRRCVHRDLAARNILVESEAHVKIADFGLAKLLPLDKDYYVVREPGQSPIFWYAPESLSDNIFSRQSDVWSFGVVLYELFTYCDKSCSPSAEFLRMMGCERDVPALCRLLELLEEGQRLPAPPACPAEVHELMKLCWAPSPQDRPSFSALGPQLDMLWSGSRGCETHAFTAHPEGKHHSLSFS
The assay is described as follows: EPK JAK-family kinases profiling assay (Caliper mobility shift), JAK3. Type of assay: biochemical. To be noted: ATP 80 μM, 6 nM kinase. In short, it runs like this: as §1

The next assay has as its target T4, GST-TYK2(888-1187) (Homo sapiens, UniProt P29597).
T4 construct: GST-TYK2(888-1187); made in house
T4 sequence (P29597 888-1187): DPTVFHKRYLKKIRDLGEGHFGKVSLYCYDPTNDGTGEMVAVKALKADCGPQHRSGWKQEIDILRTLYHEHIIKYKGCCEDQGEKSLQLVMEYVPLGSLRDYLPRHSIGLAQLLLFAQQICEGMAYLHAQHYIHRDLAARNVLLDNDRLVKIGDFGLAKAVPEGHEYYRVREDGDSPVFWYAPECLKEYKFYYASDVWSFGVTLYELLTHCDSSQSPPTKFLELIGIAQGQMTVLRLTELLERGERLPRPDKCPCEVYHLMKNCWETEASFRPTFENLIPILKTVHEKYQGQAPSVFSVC
The assay is described as follows: EPK JAK-family kinases profiling assay (Caliper mobility shift), TYK2. In kind it is biochemical. Conditions: ATP 30 μM, 40 nM kinase. The method in brief:
as §1

Assay [1] deals with JAK/STAT pathway (JAK1/JAK2-dependent nuclear translocation of STAT1-GFP). As to the kind of experiment: Inhibition of the JAK/STAT pathway: IFN-γ stimulated nuclear translocation of STAT1-GFP in HT1080 fibrosarcoma cells. In kind it is cell-based. Conditions: Homo sapiens, HT-1080; HT1080 STAT1-GFP cells, 100 ng/ml IFN-γ 2 hours, compound added 30 min before; read-out: STAT1translo IC50. In short, it runs like this:
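HT1080 cells stably expressing STAT1-GFP, compounds added 30 min before IFN-γ stimulation at final 10 μM down to 0.003 μM (0.1% DMSO). Nuclear-cytoplasmic GFP intensity differential quantified by automated imaging with Hoechst nuclear mask, ≥1000 cells per well, averaged per well.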

T2 sequence (O60674 808-1132): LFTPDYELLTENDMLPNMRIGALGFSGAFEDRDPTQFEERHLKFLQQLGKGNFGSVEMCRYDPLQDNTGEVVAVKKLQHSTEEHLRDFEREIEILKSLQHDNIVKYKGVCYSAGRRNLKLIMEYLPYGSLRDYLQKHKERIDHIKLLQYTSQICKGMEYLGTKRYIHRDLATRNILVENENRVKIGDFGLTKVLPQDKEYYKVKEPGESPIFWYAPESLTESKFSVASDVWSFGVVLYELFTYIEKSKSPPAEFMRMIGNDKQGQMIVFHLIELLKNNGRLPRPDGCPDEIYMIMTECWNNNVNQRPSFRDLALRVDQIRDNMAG
T1 sequence (P23458 866-1154): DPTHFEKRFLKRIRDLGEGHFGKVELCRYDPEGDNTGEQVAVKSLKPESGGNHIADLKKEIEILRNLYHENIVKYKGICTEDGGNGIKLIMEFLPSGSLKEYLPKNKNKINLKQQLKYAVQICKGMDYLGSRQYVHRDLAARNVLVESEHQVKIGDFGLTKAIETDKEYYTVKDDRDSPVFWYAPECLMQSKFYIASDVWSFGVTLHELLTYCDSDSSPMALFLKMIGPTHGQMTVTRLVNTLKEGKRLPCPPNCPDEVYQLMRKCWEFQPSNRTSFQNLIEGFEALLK

Take `COc1cc(-c2cnc3cccc(-c4ccc(C(=O)N5CCOCC5)c(C)c4)c3n2)ccc1N1CCN(C)CC1` [Example 105, (4-{3-[3-Methoxy-4-(4-methyl-piperazin-1-yl)-phenyl]-quinoxalin-5-yl}-2-methyl-phenyl)-morpholin-4-yl-methanone]: the IC50 was determined as 810 nM at GST-JAK1(866-1154); 32 nM on GST-JAK2(808-1132); 1800 nM at GST-JAK3(811-1124); 985 nM at GST-TYK2(888-1187); 895 nM in assay [1].

On to `COc1cc(-c2cnc3cccc(-c4cc(F)c(CN5CCS(=O)(=O)CC5)c(F)c4)c3n2)ccn1` [Example 106, 8-[4-(1,1-Dioxido-thiomorpholin-4-ylmethyl)-3,5-difluoro-phenyl]-2-(2-methoxy-pyridin-4-yl)-quinoxaline], for which the IC50 is 365 nM at GST-JAK1(866-1154); 82 nM at GST-JAK2(808-1132); 195 nM at GST-JAK3(811-1124); 1970 nM on GST-TYK2(888-1187); 202 nM in assay [1].

For `CN1CCN(c2ccc(-c3cnc4cccc(-c5cc(F)c(CN6CCOCC6)c(F)c5)c4n3)cn2)CC1` [Example 107, 8-(3,5-Difluoro-4-morpholin-4-ylmethyl-phenyl)-2-[6-(4-methyl-piperazin-1-yl)-pyridin-3-yl]-quinoxaline], the IC50 was 1350 nM on GST-JAK1(866-1154); 95.5 nM on GST-JAK2(808-1132); 9800 nM at GST-JAK3(811-1124); 2950 nM on GST-TYK2(888-1187); 2470 nM in assay [1].

For the molecule `CN1CCN(c2ccc(-c3cnc4cccc(-c5cc(F)c(CN6CCS(=O)(=O)CC6)c(F)c5)c4n3)cn2)CC1` [Example 108, 8-[4-(1,1-Dioxido-thiomorpholin-4-ylmethyl)-3,5-difluoro-phenyl]-2-[6-(4-methyl-piperazin-1-yl)-pyridin-3-yl]-quinoxaline], the IC50 on GST-JAK1(866-1154) stood at 254 nM; on GST-JAK2(808-1132), 24.5 nM; at GST-JAK3(811-1124), 2400 nM; at GST-TYK2(888-1187), 417 nM; in assay [1], 150 nM.

In the case of `CN(C)CCN(C)C(=O)c1ccc(-c2cnc3cccc(-c4cc(F)c(CN5CCOCC5)c(F)c4)c3n2)cn1` [Example 110, 5-[8-(3,5-Difluoro-4-morpholin-4-ylmethyl-phenyl)-quinoxalin-2-yl]-pyridine-2-carboxylic acid (2-dimethylamino-ethyl)-methyl-amide], the IC50 was 5550 nM at GST-JAK1(866-1154); 575 nM at GST-JAK2(808-1132); more than 10000 nM at GST-JAK3(811-1124); 9300 nM at GST-TYK2(888-1187); 1590 nM in assay [1].

On to `CN(C)CCN(C)C(=O)c1ccc(-c2cnc3cccc(-c4cc(F)c(CN5CCS(=O)(=O)CC5)c(F)c4)c3n2)cn1` [Example 111, 5-{8-[4-(1,1-Dioxido-thiomorpholin-4-ylmethyl)-3,5-difluoro-phenyl]-quinoxalin-2-yl}-pyridine-2-carboxylic acid (2-dimethylamino-ethyl)-methyl-amide], for which the 50% inhibitory concentration (IC50) was found to be 920 nM at GST-JAK1(866-1154); 105 nM at GST-JAK2(808-1132); 9300 nM on GST-JAK3(811-1124); 1700 nM at GST-TYK2(888-1187); 1230 nM in assay [1].

In the case of `Cc1cc(-c2cnc3cccc(-c4cc(F)c(CN5CCOCC5)c(F)c4)c3n2)cnc1C(=O)N(C)CCN(C)C` [Example 112, 5-[8-(3,5-Difluoro-4-morpholin-4-ylmethyl-phenyl)-quinoxalin-2-yl]-3-methyl-pyridine-2-carboxylic acid (2-dimethylamino-ethyl)-methyl-amide], the IC50 on GST-JAK1(866-1154) was 5350 nM; on GST-JAK2(808-1132), 320 nM; on GST-JAK3(811-1124) it was more than 10000 nM; at GST-TYK2(888-1187), more than 10000 nM; in assay [1], 13600 nM.

Consider `Cc1cc(-c2cnc3cccc(-c4cc(F)c(CN5CCS(=O)(=O)CC5)c(F)c4)c3n2)cnc1C(=O)N(C)CCN(C)C` [Example 113, 5-{8-[4-(1,1-Dioxido-thiomorpholin-4-ylmethyl)-3,5-difluoro-phenyl]-quinoxalin-2-yl}-3-methyl-pyridine-2-carboxylic acid (2-dimethylamino-ethyl)-methyl-amide], for which the IC50 was 615 nM on GST-JAK1(866-1154); 28.5 nM at GST-JAK2(808-1132); 3300 nM at GST-JAK3(811-1124); 1150 nM on GST-TYK2(888-1187); 1940 nM in assay [1].

A word on the IC50: it is the concentration that gives 50% inhibition.
